Here are results for five molecules from patent publication US9028856B2, “Synergistic pesticide compositions” (priority 2008, dated 2015).

The mortality is the share of the test organisms that died. Read a high mortality as fewer survivors.

What all share (type): in vivo
Series [1] relates to Culex quinquefasciatus mosquito. As to the kind of experiment: USDA Petri Dish Method, 3 min exposure to treated glazed tile (twenty 4-6 day old females). The conditions noted are these: Table 50, fipronil/adjuvant in acetone, glazed tile, 3 min exposure. The essentials: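 Twenty 4-6 day old female Culex quinquefasciatus exposed 3 minutes to overnight-dried acetone-applied treatment, then moved to untreated card; at least three replicates. Knockdown scored at intervals over 1–3 hours, sucrose provided, mortality at 24 hours.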

Another series relates to Aedes aegypti mosquito. The series is described as follows: USDA Petri Dish Method, 3 min exposure to dipped fiberglass window screen. The protocol:
MATERIALS AND METHODS: Aqueous solutions of 1% deltamethrin with and without an adjuvant composition, which is sold under the tradename Suspend® SC. […] Pre-cut fiberglass screen (5″×5″, or 161.3 cm^2) were dipped in each treatment solution and excessive solution was allowed to drain completely (see FIG. 23 a). Weight of the solution coated on the screen was then determined. The treated screen was then allowed to air-dry overnight. USDA Petri Dish Method was used as initial screening protocol (see FIG. 23 b). Twenty, 4-6 day old female Aedes aegypti were exposed to treated window screen for 3 minutes and then moved onto a clean untreated white paper index card. Treatments were replicated a minimum of three times. Mosquito knockdown was evaluated at 3 minute intervals for the first 15 minutes and then at 5 minute intervals for the remainder of an hour. A small cotton ball with sucrose solution was added on the screen top of the Petri dish as a drinking source. Mortality was evaluated at 24 hours after exposure.
MATERIALS AND METHODS: Several rates of permethrin without adjuvant were prepared using product sold under the tradename Permanone® 40 to determine an effective rate against Aedes aegypti mosquitoes. After determining an effective rate range, aqueous solutions of permethrin at 1.25, 1.0 and 0.05% AI were prepared with and without adjuvant. […] Pre-cut fiberglass screens (5″×5″ or 161.3 cm^2) were dipped in each treatment solution allowing excessive solution to drain completely. Weight of the solution coated on the screen was then determined. The treated screen was then allowed to air-dry overnight. USDA Petri Dish Method was used as initial screening protocol (see photo, right). Twenty, 4-6 day old female Aedes aegypti were exposed to treated window screen for 3 minutes and then moved to a clean untreated white paper index card. Treatments were replicated a minimum of three times. Mosquito knockdown was evaluated at 3 minute intervals for the first 15 minutes and then at 5 minute intervals for the remainder of an hour. A small cotton ball with sucrose solution was added on the screen top of the petri-dish as a drinking source. Mortality was evaluated at 24 hours after exposure.

A further series concerns spiders. The series is described as follows: Spider control field trial on structures (spider counts in treated and untreated plots). The conditions noted are these: imidacloprid ca. 22 mg AI per sq. m; deltamethrin ca. 12 mg AI per sq. m. The text has this:
Replicated plots (e.g., 1 meter sq. or as site dictates) were defined for treatment and observations. All living spiders in this area were counted, and the trial was begun by sweeping down all webbing, being careful not to harm the resident spiders in the process. The combinations were applied in the very sites formerly occupied by the spiders. The sites were re-visited intermittently, and total number of spiders in treated and untreated plots were counted. The evaluations were continued until the control failed, or as long as was practical. All formulations were diluted in water before treatment. All imidacloprid treatments were applied to the plots at the same rate of ca. 22 mg AI per sq. m. of surface area; deltamethrin was applied at the label rate of ca. 12 mg AI per sq. m. of surface area and served as a positive control. All treatments were replicated in three plots.

For series [2], the system named is German cockroach (Blattella germanica). As to the kind of experiment: Contact efficacy against cockroaches on filter papers in glass dishes. The source says:
The objective of this study was to evaluate differences between deltamethrin and imidacloprid with and without adjuvant against cockroaches. The method for determining contact efficacy against cockroaches was the same as that in Example 107.

The mark [3] stands for this setting: 0.00032% Deltamethrin in acetone.
Setting [4] is: 0.0016% Deltamethrin in acetone.

Turning to `N#Cc1nn(-c2c(Cl)cc(C(F)(F)F)cc2Cl)c(N)c1[S+]([O-])C(F)(F)F` (stereo not shown) [Fipronil (.001%)], in series [1], the “Average % Knockdown & Mortality after 30 min” value was found to be 0%, the “Average % Knockdown & Mortality after 60 min” value amounted to 0%, the “Average % Knockdown & Mortality after 2 hr” value is on record as 0% and the “Average % Knockdown & Mortality after 3 hr” value amounted to 0%. Moreover, in series [1], the “Average % Knockdown & Mortality after 24 hr” value was 2%.
Take `N#Cc1nn(-c2c(Cl)cc(C(F)(F)F)cc2Cl)c(N)c1[S+]([O-])C(F)(F)F` (stereo not shown) [Fipronil (.01%)]: in series [1], the “Average % Knockdown & Mortality after 30 min” value was 0%, the “Average % Knockdown & Mortality after 60 min” value amounted to 0%, the “Average % Knockdown & Mortality after 2 hr” value came out at 0% and the “Average % Knockdown & Mortality after 3 hr” value worked out at 0%. In series [1], the “Average % Knockdown & Mortality after 24 hr” value amounted to 48%.
Consider `CC1(C)[C@H](C(=O)O[C@H](C#N)c2cccc(Oc3ccccc3)c2)[C@@H]1C=C(Br)Br` [deltamethrin (1%)], for which, in the series with Aedes aegypti mosquito (3 min, Table 26, aqueous deltamethrin/adjuvant, dipped screen, 3 min exposure), the “Average % Knockdown & Mortality after 3 min” value is 0%. For the same molecule, in the series on Aedes aegypti mosquito (9 min, Table 26, aqueous deltamethrin/adjuvant, dipped screen, 3 min exposure), the “Average % Knockdown & Mortality after 9 min” value was found to be 0%. In the series with Aedes aegypti mosquito (15 min, Table 26, aqueous deltamethrin/adjuvant, dipped screen, 3 min exposure), the “Average % Knockdown & Mortality after 15 min” value was 0%. Moreover, the “Average % Knockdown & Mortality after 30 min” value with Aedes aegypti mosquito (30 min, Table 26, aqueous deltamethrin/adjuvant, dipped screen, 3 min exposure) amounted to 27%. In the series on Aedes aegypti mosquito (60 min, Table 26, aqueous deltamethrin/adjuvant, dipped screen, 3 min exposure), the “Average % Knockdown & Mortality after 60 min” value is listed as 84%. The “Average % Knockdown & Mortality after 24 hr” value in the series on Aedes aegypti mosquito (24 hr, Table 26, aqueous deltamethrin/adjuvant, dipped screen, 3 min exposure) was 100%.
On to `CC1(C)[C@H](C(=O)O[C@H](C#N)c2cccc(Oc3ccccc3)c2)[C@@H]1C=C(Br)Br` [deltamethrin], for which the “mortality at 24 hours after exposure” value in the series on Aedes aegypti mosquito (1% deltamethrin alone, treated screen) was 100%. Besides, in the series on Aedes aegypti mosquito (Aedes aegypti, treated window screen), the “efficacy of the substance alone (summary in words)” value is recorded as “good knockdown”. In addition, in the series with spiders, the “suppression of spider populations relative to the untreated control (cross trial average)” value turned out to be 83.4%. In series [2] (setting [3]), the “% Mortality after 15′” value came to 0%, the “% Mortality after 30′” value came to 0%, the “% Mortality after 1 h” value is given as 0% and the “% Mortality after 2 h” value stood at 20%. In series [2] (setting [3]), the “% Mortality after 4 h” value turned out to be 20%, the “% Mortality after 6 h” value turned out to be 20% and the “% Mortality after 1 d” value was 100%. For the same molecule, in series [2] (setting [4]), the “% Mortality after 15′” value worked out at 40%, the “% Mortality after 30′” value turned out to be 60%, the “% Mortality after 1 h” value worked out at 80% and the “% Mortality after 2 h” value is listed as 100%. Also, in series [2] (setting [4]), the “% Mortality after 4 h” value is 100%, the “% Mortality after 6 h” value worked out at 100% and the “% Mortality after 1 d” value is on record as 100%.
Regarding `O=[N+]([O-])NC1=NCCN1Cc1ccc(Cl)nc1` [imidacloprid], the “suppression of spider populations relative to the untreated control (cross trial average)” value in the series on spiders is “around 24.5%”. Moreover, in series [2] (0.04% Imidacloprid in acetone), the “% Mortality after 15′” value stood at 0%, the “% Mortality after 30′” value is 0%, the “% Mortality after 1 h” value is 0% and the “% Mortality after 2 h” value turned out to be 0%. In series [2] (0.04% Imidacloprid in acetone), the “% Mortality after 4 h” value was 0%, the “% Mortality after 6 h” value was determined as 0% and the “% Mortality after 1 d” value amounted to 0%. For the same molecule, in series [2] (0.2% Imidacloprid in acetone), the “% Mortality after 15′” value came to 0%, the “% Mortality after 30′” value came to 0%, the “% Mortality after 1 h” value is listed as 0% and the “% Mortality after 2 h” value came to 0%. For the same molecule, in series [2] (0.2% Imidacloprid in acetone), the “% Mortality after 4 h” value was 0%, the “% Mortality after 6 h” value was 0% and the “% Mortality after 1 d” value worked out at 0%. In addition, the “efficacy with adjuvant compared with insecticide alone (summary in words)” value in series [2] (filter papers in glass dishes) is reported as “no mortality was observed, with or without adjuvant”.
